Laboratory results published in US5968940A, “Retinoids and methods of use of same” (priority 1996, dated 1999).

How the values were obtained:
[1] = system: Human promyelocytic leukemia HL-60 cells; experiment: Cell differentiation of HL-60 cells, nitroblue tetrazolium (NBT) reduction / morphology; format: cell-based
Experimental: Human promyelocytic leukemia HL-60 cells were cultured in RPMI-1640 medium supplemented by 10% heat-inactivated calf serum and 100 U/ml of penicillin plus 100 μg/ml of streptomycin. The flasks containing cells and medium were incubated in an incubator with 5% CO2 at 37° C. Log phase cells were seeded into the medium at a concentration of 1.2×10^5to 1.4×10^5 cells per ml and cultured in flasks containing 5 ml of medium. Each group consisted of three flasks. Different concentrations of coumarin-retinoids were added. At intervals following the addition of coumarin-retinoids to the cultures, a small portion of cells was removed and live cells were counted under a light microscope using a dye-exclusionmethod with trypan blue. Cell differentiation was judged in terms of morphology and nitroblue tetrazolium (NBT) reduction.
For a determination of NBT reducing activity, a portion of the coumarin-retinoid-treated cells was removed at intervals following treatment and centrifuged. After centrifugation, 0.5 ml of 0.1% NBT (containing 100 ng TPA) was added to each tube. The contents of the test tubes were then incubated for 1 hour at 37° C. Cell smears were prepared from the cell sediment and stained using the Wright-Giemsa technique. For each smear prepared, 200 cells were isolated for examination under a light microscope with an oil immersion lens. Cells stained with blue-black granules were considered NBT-positive cells. The 50% differentiation or effective concentration (ED50 or EC50) is shown in terms of molar (M) concentration of the […] tested.
For a determination of cell morphology, a cell smear was prepared at intervals following treatment of cells for each coumarin-retinoid concentration group using the Wright-Giemsa stain technique. Stained cells were counted and classified under a light microscope with an oil immersion lens. After treatment with coumarin-retinoids, the morphological development of HL-60 cells proceeded toward mature granulocytes. This development was manifested by decreased cell volume; a lower nuclei to cytoplasm ratio; smaller or missing nuclei; concentration of chromatin; and the appearance of a certain proportion of intermediate and late granuloblasts (progranulocytes), elongated rod granulocytes, and granulocytes with branched nuclei.
(§1) The protocols of Examples 14 and 21 were used, for the NBT and MTT assays, respectively.

[2] = system: HL-60 cells; experiment: MTT assay, inhibition of HL-60 cells; format: cell-based, human; conditions: HL-60, Table 15
Experimental: Human cancer cell lines (KB, A2780, MCF-7, HL-60, A549) were used. For a monolayer culture, 0.5 ml of trypsin solution ([…]) was added to the flasks for digestion. Microtiter plates (96 well) were used for the cell culture and 200 μl of cell suspension (1200 tumor cells) were placed in each well and incubated at 37° C. for 24 hours. Following the addition of the test compound, the control and treated flasks were placed in a CO2 incubator for 5 day culture. For the MTT assay, 200 μl of MTT solution (5 mg in 10 ml of phosphate buffer) plus the medium were added and incubated for another 4 hours. Following incubation, the supernatant was discarded and 200 μl of DMSO was added to each well. With a mild agitation the OD values were determined by the MR 700 Elisa at 570 nm (reference wavelength was 450 nm). The ED50 of the compound and tumor cell survival rate [formula] as percent inhibition were calculated.
as §1

[3] = system: fetus absorption in mice; experiment: Effect on fetus absorption in mice; format: in vivo
Experimental: (§2) Female mice were examined by vaginal smear the morning after being caged with male mice, and if sperm or a vaginal plug was discovered, then the mice were determined to be pregnant. The retinoids were administered at the dosage indicated starting on the seventh day of pregnancy and continued once a day for the next ten days. On the 20th day after the female mice were determined to be pregnant, they were sacrificed by cervical dislocation. Both sides of the uterus were checked and the number of living embryos, dead embryos, and absorbed embryos were counted. The living embryos were further examined for bone abnormalities.

[4] = system: bone abnormalities in mouse fetus; experiment: Bone abnormalities in mouse fetus; format: in vivo
Experimental: as §2
After the embryos became transparent, they were dissected and their skeletons were checked by observation under a microscope.

[5] = system: chondrosarcoma; experiment: Growth of chondrosarcoma in rats; format: in vivo; conditions: for Body Weight final: in g (unit assumed)
Text: Transplantable chondrosarcomas obtained from Dr. Trown, Hoffman--La Roche Institute of Molecular Biology and Wistar rats obtained from the Breeding Center of Experimental Animals, Chinese Academy of Medical Sciences were used. According to the routine transplantation protocol as described in Cancer Treatment Reports 60(11):1647-1653 (1976) where the small pieces of chondrosarcoma tumor were implanted subcutaneously in the right inguinal region of rats using a trocar. Tumor-bearing rats were randomized to a control group and a treated group. Each group consisted of ten rats. […] Sixty days after transplantation, the rats were sacrificed and the tumor weight was determined. The inhibition rate was calculated according to the following formula: [formula]

| EC50 ([2]; Homo sapiens) [µM] | Structure (SMILES) | NBT (+) % ([1]; 10^-5 M) [%] | NBT (+) % ([1]; 10^-6 M) [%] | NBT (+) % ([1]; 10^-7 M) [%] | also measured |
| --- | --- | --- | --- | --- | --- |
| – | CCOC(=O)c1cc2ccc(OC(=O)/C=C(C)/C=C/C=C(C)/C=C/C3=C(C)CCCC3(C)C)c(C)c2oc1=O [Compound I-15] | 93 | 84 | 46 | NBT (+) % ([1]; 10^-8 M): 12% |
| – | CCOC(=O)c1cc2c(OC(=O)/C=C(C)/C=C/C=C(C)/C=C/C3=C(C)CCCC3(C)C)cc(OC(=O)/C=C(C)/C=C/C=C(C)/C=C/C3=C(C)CCCC3(C)C)cc2oc1=O [Compound I-21] | 94 | 80 | 41 | NBT (+) % ([1]; 10^-8 M): 17% |
| – | CC(=O)c1cc2c(OC(=O)/C=C(C)/C=C/C=C(C)/C=C/C3=C(C)CCCC3(C)C)c(C(=O)O)ccc2oc1=O [Compound I-8] | 98 | 69 | 55 | NBT (+) % ([1]; 10^-8 M): 34% |
| > 10 | CC1=C(/C=C/C(C)=C/C=C/C(C)=C/C(=O)Oc2ccc3c(C)cc(=O)oc3c2C)C(C)(C)CCC1 [Compound I-30] | – | – | – | – |
| – | CC(=O)c1cc2ccc(OC(=O)/C=C(C)/C=C/C=C(C)/C=C/C3=C(C)CCCC3(C)C)c(OC(=O)/C=C(C)/C=C/C=C(C)/C=C/C3=C(C)CCCC3(C)C)c2oc1=O [Compound I-9] | 96 | 88 | 55 | NBT (+) % ([1]; 10^-8 M): 31%; Fetus Absorption, absorbed number/implanted number ([3]; 20 mg/kg once a day from day 7 of pregnancy): 0/113; Fetus Absorption, absorbed number/implanted number ([3]; 40 mg/kg once a day from day 7 of pregnancy): 0/119; Delayed Calcification, Occipital delay/fetus number ([4]; 20 mg/kg): 0/75; Delayed Calcification, Sternum delay/fetus number ([4]; 20 mg/kg): 0/75; Delayed Calcification, Occipital delay/fetus number ([4]; 40 mg/kg): 3/77; Delayed Calcification, Sternum delay/fetus number ([4]; 40 mg/kg): 2/77 |
| – | CCOC(=O)c1cc2cc(Cl)c(OC(=O)/C=C(C)/C=C/C=C(C)/C=C/C3=C(C)CCCC3(C)C)cc2oc1=O [Compound I-18] | 44 | 8 | – | – |
| – | CCOC(=O)c1cc2ccc(OC(=O)/C=C(C)/C=C/C=C(C)/C=C/C3=C(C)CCCC3(C)C)cc2oc1=O [Compound I-17] | 84 | 54 | 2 | – |
| – | CC(=O)c1cc2c(C(=O)O)cc(OC(=O)/C=C(C)/C=C/C=C(C)/C=C/C3=C(C)CCCC3(C)C)cc2oc1=O [Compound I-4, 3-acetyl-5-carboxy-7-retinoyloxy coumarin] | 92 | 84 | 73 | NBT (+) % ([1]; 10^-8 M): 15% |
| – | CCOC(=O)c1cc(OC(=O)/C=C(C)/C=C/C=C(C)/C=C/C2=C(C)CCCC2(C)C)cc2oc(=O)c(C(C)=O)cc12 [Compound I-11, 3-acetyl-5-ethoxycarbyl-7-retinoyloxy-coumarin] | 72 | 49 | 8 | NBT (+) % ([1]; 10^-4 M): 77% |
| – | CCCCCCCCCCCCOC(=O)c1cc(OC(=O)/C=C(C)/C=C/C=C(C)/C=C/C2=C(C)CCCC2(C)C)c(OC(=O)/C=C(C)/C=C/C=C(C)/C=C/C2=C(C)CCCC2(C)C)c2oc(=O)c(C(=O)OCC)cc12 [Compound I-12] | 82 | 47 | 30 | NBT (+) % ([1]; 10^-8 M): 0%; NBT (+) % ([1]; 10^-9 M): 0% |
| > 10 | CCc1cc2c(C)cc(=O)oc2cc1OC(=O)/C=C(C)/C=C/C=C(C)/C=C/C1=C(C)CCCC1(C)C [Compound I-31, 4-methyl-6-ethyl-7-retinoyloxy-coumarin] | – | – | – | – |
| 2.6 | CC1=C(/C=C/C(C)=C/C=C/C(C)=C/C(=O)Oc2cc(=O)oc3ccc(C)cc23)C(C)(C)CCC1 [Compound I-35, 4-retinoyloxy-6-methyl-coumarin] | – | – | – | – |
| – | CC1=C(/C=C/C(C)=C/C=C/C(C)=C/C(=O)Nc2ncnc3c2ncn3C(=O)/C=C(C)/C=C/C=C(C)/C=C/C2=C(C)CCCC2(C)C)C(C)(C)CCC1 [II-A] | – | – | – | Absorbed Number ([3]; 20 mg/kg, implanted number 141, 12 pregnant mice): 10; Absorbed Number ([3]; 40 mg/kg, implanted number 181, 15 pregnant mice): 17; Animals final ([5]; 2 mg/kg × 10, initial 10): 9; Body Weight final ([5]; 2 mg/kg × 10, initial 74.1): 130.6; Inhibition rate (%) ([5]; 5 mg/kg × 10 (Table 14)): 62.6%; Tumor Weight ([5]; 5 mg/kg × 10 (Table 14)): 4.0 grams; Animals final ([5]; 5 mg/kg × 10, initial 10 (Table 14)): 9; Body Weight final ([5]; 5 mg/kg × 10, initial 71.7 (Table 14)): 129.2 |
| – | CCOC(=O)c1cc2c(C(=O)O)cc(OC(=O)/C=C(C)/C=C/C=C(C)/C=C/C3=C(C)CCCC3(C)C)cc2oc1=O [Compound I-19] | 84 | 5 | – | NBT (+) % ([1]; 10^-4 M): 92% |
| 3.2 | CC1=C(/C=C/C(C)=C/C=C/C(C)=C/C(=O)Oc2cc(OC(=O)/C=C(C)/C=C/C=C(C)/C=C/C3=C(C)CCCC3(C)C)c3c(C)cc(=O)oc3c2)C(C)(C)CCC1 [Compound I-33, 4-methyl-5,7-diretinoyloxy-coumarin] | – | – | – | – |
| – | CC(=O)c1cc2c(C)cc(OC(=O)/C=C(C)/C=C/C=C(C)/C=C/C3=C(C)CCCC3(C)C)cc2oc1=O [Compound I-2] | 84 | 38 | 2 | – |
| 3.2 | CC1=C(/C=C/C(C)=C/C=C/C(C)=C/C(=O)Oc2ccc3c(C)cc(=O)oc3c2OC(=O)/C=C(C)/C=C/C=C(C)/C=C/C2=C(C)CCCC2(C)C)C(C)(C)CCC1 [Compound I-36, 4-methyl-7,8-diretinoyloxy-coumarin] | – | – | – | – |
| – | CC1=C(/C=C/C(C)=C/C=C/C(C)=C/C(=O)Oc2cc(C(=O)O)c3cc(C(N)=O)c(=O)oc3c2)C(C)(C)CCC1 [Compound I-26] | 97 | 91 | 53 | NBT (+) % ([1]; 10^-8 M): 34% |
| 1.9 | CC1=C(/C=C/C(C)=C/C=C/C(C)=C/C(=O)Oc2cc(=O)oc3c(C)cccc23)C(C)(C)CCC1 [Compound I-29] | – | – | – | – |
| – | CC1=C(/C=C/C(C)=C/C=C/C(C)=C/C(=O)Oc2ccc3c(C)cc(=O)oc3c2)C(C)(C)CCC1 [Compound I-32, 4-methyl-7-retinoyloxy-coumarin] | – | – | – | EC50 ([1]; HL-60, Table 15, read-out: NBT ED50): 13 µM; EC50 [2]: 11 µM |
| – | CC(=O)c1cc2c(COC(=O)/C=C(C)/C=C/C=C(C)/C=C/C3=C(C)CCCC3(C)C)cc(OC(=O)/C=C(C)/C=C/C=C(C)/C=C/C3=C(C)CCCC3(C)C)cc2oc1=O [Compound I-7] | 85 | 65 | 12 | – |
| > 10 | CC1=C(/C=C/C(C)=C/C=C/C(C)=C/C(=O)Oc2cc(=O)oc3ccc(C(C)(C)C)cc23)C(C)(C)CCC1 [Compound I-28, 4-retinoyloxy-6-t-butyl-coumarin] | – | – | – | – |
| – | CC(=O)c1cc2ccc(OC(=O)/C=C(C)/C=C/C=C(C)/C=C/C3=C(C)CCCC3(C)C)c(C)c2oc1=O [Compound I-3] | 88 | 77 | 12 | – |
| – | CC1=C(/C=C/C(C)=C/C=C/C(C)=C/C(=O)Oc2cc3oc(=O)c(C(N)=O)cc3cc2Cl)C(C)(C)CCC1 [Compound I-27] | 88 | 80 | 17 | – |
| > 10 | CCCCCCc1cc2c(C)cc(=O)oc2cc1OC(=O)/C=C(C)/C=C/C=C(C)/C=C/C1=C(C)CCCC1(C)C [Compound I-34, 4-methyl-6-hexyl-7-retinoyloxy-coumarin] | – | – | – | – |
